{"source": "patent US20040143009A1", "about": "“Amines, uses thereof” (L'OREAL, priority 2002, published 2004)", "key": {"[1]": {"system": "rat-isolated phrenic nerve/diaphragm (striated muscle) preparation", "test": "Nerve/muscle (motor plate) junction model, isolated phrenic nerve/diaphragm preparation", "settings": "at 10^-4 M", "experimental": "Compound 1 was tested on a nerve/muscle (motor plate) junction model obtained in a rat-isolated phrenic nerve/diaphragm (striated muscle) preparation (Pollard B. J. et al., Br. J. Anaesth., 1988, 61, 419-424).\n(§1) This test is predictive of an antiwrinkle effect, as was verified by the applicant on diazepam, which is both active in vivo in humans and in this test at 10^−4 M.\nThe phrenic nerve and the diaphragm are carefully isolated and placed in a 50 ml tank filled with survival fluid (Krebs Henseleit fluid) kept at a temperature of 37° C. and oxygenated with an oxygen/CO2 (95/5) mixture.\nVariations in the tension of the diaphragm are recorded with an initial preload of several grams.\nAfter a relaxation period of 30 min, the diaphragm is indirectly stimulated by means of the phrenic nerve.\nOn each preparation, the effect of the test compound was evaluated on contractions induced by indirect stimulation via stimulation on the phrenic nerve (0.1 to 0.5 volts, 0.3 ms, 0.1 Hz). Alverine, known as a muscle-relaxing compound with antiwrinkle effect according to application FR-2 798 590, is used as control."}, "[2]": {"test": "Antiwrinkle effect in vivo in humans", "text": "as §1"}}, "data": [{"compound": "CN1C(=O)CN=C(c2ccccc2)c2cc(Cl)ccc21", "note": "[diazepam]", "values": [{"measurement": "activity in the nerve/muscle junction test", "setting": "[1]", "value": "active"}, {"measurement": "antiwrinkle activity in vivo in humans", "setting": "[2]", "value": "active"}]}]}
